Results published in patent EP0377044B1, “PROTECTIVE AGENT FOR RADIATION HAZARD” (MITSUI TOATSU CHEMICALS, Inc., priority 1988, dated 1989).
Square brackets hold non-standard residues; d marks the D form. Peptide text beside a SMILES is read from it. pGlu = O=C1CC[C@@H](C(=O)O)N1

How the values were obtained:
Format in all cases: in vivo
[1] = system: mice irradiated with 900R X-rays; test: Survival of mice after whole body irradiation with 900R X-rays
Description: (§1) Male, 10 week-old C3H/He mice were used and groups of 10 - 15 animals each were prepared.
(§2) The mice were subjected to whole body irradiation for 8 minutes using a X-radiation unit (manufactured by Shimazu Seisaku-sho, Shin-Ai 250 II). These animals received, once per day, subcutaneous administration of 100 µg of FTS·CH₃COOH·2H₂O as used in Example 1 for consecutive 14 days. For a pre-administered group, the administration started two days before the irradiation. For a post-administered group, the first administration was effected immediately after the irradiation. As control groups, one group which received only once subcutaneous administration of 1 KE of Picibanil immediately after the irradiation and another group which received every day administration of physiological saline were prepared.
In the same manner as in Experimental Example 1, mice were subcutaneously administered, after X-radiation for 9 minutes, with 100 µg/day of FTS·CH₃COOH·2H₂O, once a day and twelve times in all, i.e. on the zero, 1st, 2nd, 3rd, 4th, 5th, 7th, 8th, 9th, 10th, 11th and 12th days.

[2] = system: mice irradiated with 600R X-rays; test: Survival of mice after whole body irradiation with 600R X-rays
Description: as §1, §2
(§3) In the same manner as in Experimental Examples 1 and 2, mice were irradiated with X-rays for 6 minutes. For a period of consecutive 14 days from 2 days before irradiation, the animals were subcutaneously administered, once a day, with 100 µg/day of FTS·CH₃COOH·2H₂O as medicament.

[3] = system: mice were subjected to 600R X-radiation / 400R X-radiation; test: Blood test in X-irradiated mice (600R and 400R); conditions: for Blood parameters HCT / Blood parameters HGB / Blood parameters PLT / Blood parameters RBC / Blood parameters RET / Blood parameters WBC: pre-administration with 100 µg; for Blood parameters HCT: hematocrit value; for Blood parameters HGB: hemoglobin; for Blood parameters PLT: number of blood platelet; for Blood parameters RBC: number of red blood cells; for Blood parameters RET: number of reticulocytes; for Blood parameters WBC: number of white blood cells
Description: Independently of the irraditation carried out in Experimental Example 3 with mice for life/death observation, mice were subjected to 600R X-radiation to conduct a blood test on a dayly basis. Another group of mice was prepared and subjected to 400R X-radiation. Each of the 600R- and 400R-irradiated groups was further divided into two, one `group being for pre-administration with 100 µg of the above mentioned medicament and the other group serving as a control. Samples of blood were taken every day from each mouse and tested for the number white blood cells (WBC), that of red blood cells (RBC), that of reticulocytes (RET), that of blood platelet (PLT), that of hemoglobin (HGB) and hematocrit value (HCT).

[4] = Body weight measurement of 600R-irradiated mice; conditions: for body weight (g) [Mean ± S.D.]: 600R X-ray, 100 µg/day s.c. pre-administration
Description: as §3
The body weight of each experimental group of mice in Experimental Example 3 was measured on consecutive days for observation of changes in weight.

ddy male mice = test: Toxicity test, repeated subcutaneous administration to mice; conditions: for toxicity: five ddy male mice of 5 weeks old
Description: (§4) Thus, the medicament of the present invention is a safe medicament of extremely low toxicity and can be administered for a long period of time.

Wister rats = test: Toxicity test, repeated subcutaneous administration to rats
Description: as §4

mice = test: Whole body X-irradiation, % survival over thirty days (general description)
Description: The effect of the radioprotective agent of the present invention is confirmed by the experiments as described below. Thus, mice, rats, guinea pigs or the like mammals were subjected to whole body irradiation, using a X-radiation unit (Shimazu Seisaku-sho, Shin-Ai 250 II), to determine % survival over a period of thirty days. In carrying out these experiments, given amounts of the nonapeptide were administered by different routes of administration, such as intraperitoneal, intravenous, intramuscular, subcutaneous or oral route of administration, either every day or every other day over a given period of time from before or from immediately after the irradiation, to measure the body-weight of the animals and observe whether they were alive or dead.

cancer-carrying mice = test: Radiotherapeutic experiments on cancer-carrying mice; conditions: pre- or post-irradiation administration
[5] = system: radiation-induced cancers in mice; test: Development of radiation-induced cancers in irradiated mice; conditions: administration over a certain period

## C[C@H](NC(=O)[C@@H]1CCC(=O)N1)C(=O)N[C@@H](CCCCN)C(=O)N[C@@H](CO)C(=O)N[C@@H](CCC(N)=O)C(=O)NCC(=O)NCC(=O)N[C@@H](CO)C(=O)N[C@@H](CC(N)=O)C(=O)O [medicament, pGlu-Ala-Lys-Ser-Gln-Gly-Gly-Ser-Asn] ([pGlu]AKSQGGSN-OH)
[1]; 900R X-rays, post-administration 100 µg/day s.c., twelve times in all (days 0-5, 7-12), day 9, 15 animals used
  The number of days and survivals after X-radiation 9 (days): 15
[1]; 900R X-rays, post-administration 100 µg/day s.c., twelve times in all (days 0-5, 7-12), day 10, 15 animals used
  The number of days and survivals after X-radiation 10 (days): 13
[1]; 900R X-rays, post-administration 100 µg/day s.c., twelve times in all (days 0-5, 7-12), day 11, 15 animals used
  The number of days and survivals after X-radiation 11 (days): 12
[1]; 900R X-rays, post-administration 100 µg/day s.c., twelve times in all (days 0-5, 7-12), day 12, 15 animals used
  The number of days and survivals after X-radiation 12 (days): 12
[1]; 900R X-rays, post-administration 100 µg/day s.c., twelve times in all (days 0-5, 7-12), day 13, 15 animals used
  The number of days and survivals after X-radiation 13 (days): 7
[1]; 900R X-rays, post-administration 100 µg/day s.c., twelve times in all (days 0-5, 7-12), day 14, 15 animals used
  The number of days and survivals after X-radiation 14 (days): 4
[1]; 900R X-rays, post-administration 100 µg/day s.c., twelve times in all (days 0-5, 7-12), day 15, 15 animals used
  The number of days and survivals after X-radiation 15 (days): 3
[1]; 900R X-rays, post-administration 100 µg/day s.c., twelve times in all (days 0-5, 7-12), day 16, 15 animals used
  The number of days and survivals after X-radiation 16 (days): 2
[1]; 900R X-rays, post-administration 100 µg/day s.c., twelve times in all (days 0-5, 7-12), day 18, 15 animals used
  The number of days and survivals after X-radiation 18 (days): 2
[1]; 900R X-rays, post-administration 100 µg/day s.c., twelve times in all (days 0-5, 7-12), day 20, 15 animals used
  The number of days and survivals after X-radiation 20 (days): 2
[1]; 900R X-rays, post-administration 100 µg/day s.c., twelve times in all (days 0-5, 7-12), day 21, 15 animals used
  The number of days and survivals after X-radiation 21 (days): 1
[1]; 900R X-rays, post-administration 100 µg/day s.c., twelve times in all (days 0-5, 7-12), day 23, 15 animals used
  The number of days and survivals after X-radiation 23 (days): 0
[1]; 900R, 100 µg/day s.c. twelve times after X-radiation, summary of Table 2
  life span extension: exhibited a life span extension
[2]; in 19 days, 100 µg/day s.c. 14 days from 2 days before irradiation, control four out of ten
  animals survived: ten out of ten
[2]; pre-administration 100 µg/day s.c., 14 days from 2 days before irradiation, day 8, 10 animals used
  The number of days and survivals after X-radiation 8 (days): 10
[2]; pre-administration 100 µg/day s.c., 14 days from 2 days before irradiation, day 9, 10 animals used
  The number of days and survivals after X-radiation 9 (days): 10
[2]; pre-administration 100 µg/day s.c., 14 days from 2 days before irradiation, day 10, 10 animals used
  The number of days and survivals after X-radiation 10 (days): 10
[2]; pre-administration 100 µg/day s.c., 14 days from 2 days before irradiation, day 11, 10 animals used
  The number of days and survivals after X-radiation 11 (days): 10
[2]; pre-administration 100 µg/day s.c., 14 days from 2 days before irradiation, day 12, 10 animals used
  The number of days and survivals after X-radiation 12 (days): 10
[2]; pre-administration 100 µg/day s.c., 14 days from 2 days before irradiation, day 13, 10 animals used
  The number of days and survivals after X-radiation 13 (days): 10
[2]; pre-administration 100 µg/day s.c., 14 days from 2 days before irradiation, day 14, 10 animals used
  The number of days and survivals after X-radiation 14 (days): 10
[2]; pre-administration 100 µg/day s.c., 14 days from 2 days before irradiation, day 15, 10 animals used
  The number of days and survivals after X-radiation 15 (days): 10
[2]; pre-administration 100 µg/day s.c., 14 days from 2 days before irradiation, day 16, 10 animals used
  The number of days and survivals after X-radiation 16 (days): 10
[2]; pre-administration 100 µg/day s.c., 14 days from 2 days before irradiation, day 17, 10 animals used
  The number of days and survivals after X-radiation 17 (days): 10
[2]; pre-administration 100 µg/day s.c., 14 days from 2 days before irradiation, day 18, 10 animals used
  The number of days and survivals after X-radiation 18 (days): 10
[2]; pre-administration 100 µg/day s.c., 14 days from 2 days before irradiation, day 19, 10 animals used
  The number of days and survivals after X-radiation 19 (days): 10
[2]; pre-administration 100 µg/day s.c., 14 days from 2 days before irradiation, day 30, 10 animals used
  The number of days and survivals after X-radiation 30 (days): 10
[3]; 400R X-rays, on the 14th day
  Blood parameters HCT: 29.8±1.4
  Blood parameters HGB: 8.8±0.3
  Blood parameters PLT: 240.6±14.3
  Blood parameters RBC: 522.7±21.7
  Blood parameters RET: 30.0±6.5
  Blood parameters WBC: 8.7±0.4
[3]; 600R X-rays, on the 7th day
  Blood parameters HCT: 39.1±5.5
  Blood parameters HGB: 12.3±1.9
  Blood parameters PLT: 372.0±174.7
  Blood parameters RBC: 691.8±96.1
  Blood parameters RET: 24.6±10.9
  Blood parameters WBC: 34.2±25.2
[3]; 600R or 400R X-radiation, pre-administration 100 µg, compared with control group, summary of Table 4
  blood parameters (WBC, RBC, RET, PLT, HGB, HCT): apparently improved
[4]; 1 day after irradiation
  body weight (g) [Mean ± S.D.]: 27.8±1.5 (15) g
[4]; 3 days after irradiation
  body weight (g) [Mean ± S.D.]: 27.7±1.1 (15) g
[4]; 5 days after irradiation
  body weight (g) [Mean ± S.D.]: 27.9±1.1 (15) g
[4]; 7 days after irradiation
  body weight (g) [Mean ± S.D.]: 28.8±1.2 (10) g
[4]; 9 days after irradiation
  body weight (g) [Mean ± S.D.]: 29.8±1.0 (10) g
[4]; 11 days after irradiation
  body weight (g) [Mean ± S.D.]: 30.2±0.9 (10) g
[4]; 13 days after irradiation
  body weight (g) [Mean ± S.D.]: 29.6±0.7 (10) g
[4]; 15 days after irradiation
  body weight (g) [Mean ± S.D.]: 28.3±0.8 (10) g
[4]; 17 days after irradiation
  body weight (g) [Mean ± S.D.]: 28.2±1.0 (10) g
[4]; 19 days after irradiation
  body weight (g) [Mean ± S.D.]: 29.1±0.8 (10) g
[4]; 29 days after irradiation
  body weight (g) [Mean ± S.D.]: 28.5±1.4 (10) g
[4]; 600R X-rays, summary of Table 5
  body weight versus control group: evidently weighed more than the control group
Ddy male mice; 50 mg/kg subcutaneously for consecutive 14 days
  toxicity: No toxicity was observed
Ddy male mice; 100 mg/kg subcutaneously every day for consecutive 14 days, mice
  toxicity (external check): no abnormal symptom was found by external check
Ddy male mice; 100 mg/kg subcutaneously for consecutive 14 days
  toxicity: No toxicity was observed
Wister rats; 30 mg/kg subcutaneously every day for consecutive 21 days, rats
  toxicity (external behavior observation, biochemical diagnosis of sera, pathological anatomy): no abnormal symptom was found in external behavior observation and biochemical diagnosis of sera and in a result of pathological anatomy
Wister rats; 30 mg/kg subcutaneously for consecutive 21 days, ten Wister rats of 5 weeks old
  toxicity: No toxicity was observed
mice; compared with the control group
  inhibition of body-weight loss: significant inhibition of body-weight loss
mice; over a period of thirty days, depending on the dose of radiation, all mice in control group died
  % survival: 40 - 100%
mice; versus control group
  life span-extending effect: significant or marked life span-extending effect
cancer-carrying mice
  anti-cancer effect of radiotherapy: potentiated
[5]
  development of radiation-induced cancers: inhibits the development of radiation-induced cancers in mice
